# According to patent publication US20110280848A1, “COMPOSITION COMPRISING CHICORIC ACID AND/OR DERIVATIVES THEREOF” (NESTEC S.A., priority 2009, published 2011):
# System: Nrf2-ARE pathway (AREc32 cells)
# Assay: Antioxidant Responsive Element (ARE) luciferase assay
# Assay type: cell-based, human
# Conditions: for F/C (Nrf2-luciferase reporter activity): 24 h
# Excerpt: The pGL-8×ARE which contains eight copies of the ARE present in rat glutathione-S-transferase A2 (GSTA2) along with the pcDNA3.1 plasmid containing the neomycin selectable marker was stably transfected into human MCF7 cells (Wang et al., Cancer Res. 66, 10983-10994, 2006). ARE (antioxidant-responsive element) is the binding site of the transcription factor Nrf2 which regulates the genes involved in detoxification and endogenous defense against oxidative stress. The plasmid pGL-8×ARE contains a luciferase gene downstream of the eight Nrf2 binding sites that allows monitoring Nrf2 activity. For treatment with chicoric acid and related compounds, the AREc 32 cells were seeded 96-well microtiter plates in DMEM growth medium. After treatment of 24 h with the different preparations, firefly luciferase activity was determined.
smiles,measurement,setting,value
O=C(/C=C/c1ccc(O)c(O)c1)O[C@@H](C(=O)O)[C@@H](OC(=O)/C=C/c1ccc(O)c(O)c1)C(=O)O [chicoric acid],F/C (Nrf2-luciferase reporter activity),100 μg/ml,2580
same,F/C (Nrf2-luciferase reporter activity),200 μg/ml,4364
same,F/C (Nrf2-luciferase reporter activity),400 μg/ml,8810
same,F/C (Nrf2-luciferase reporter activity),600 μg/ml,558
same,F/C (Nrf2-luciferase reporter activity),800 μg/ml,251
same,F/C (Nrf2-luciferase reporter activity),1000 μg/ml,346
same,Response in Nrf2-luciferase reporter activity,saturation inactivation response at higher doses,positive dose-dependent response
